Series [1] deals with TNF production from human peripheral blood mononuclear cells (PBMC). The experiment in a line: TNF production from human PBMC, Cytometric Bead Array. It is filed as cell-based. The procedure: (§1) Peripheral blood was drawn from healthy volunteers (with approval from the relevant ethical committee in Denmark). Heparinized blood was diluted 1/1 v/v with RPMI and were subjected to Ficoll density centrifugation within 2 h of drawing. Plasma was collected from the top from individual donors and was kept on ice until it was used at 2% in the culture medium (autologous culture medium). Isolated PBMC were resuspended in autologous culture medium and seeded in 96-well culture plates with 255.000 cells per well in a total of 200 μl. […] The concentrations used for stimulation were optimized on 3 different donors in initial experiments, for LPS two different concentrations were used to be sure to be on a cytokine level that is possible to modulate. In some experiments PBMC were treated with Dexamethason and Indomethacin alone and together with LPS or LTA as a control on downregulation of inflammatory cytokines. The supernatants were collected after incubation at 37° C. for 24 hours, and stored at −80° C. until cytokine measurement. Viability was measured by Alamar Blue (Biosource, DALL 1100) in all experiments and in some cases also by MTS (Promega) according to manufacturer's instruction and was in some experiments also judged by counting of the cells by a Nucleocounter.
(§2) Cytokine production in supernatants was measured by flow cytometry with a human inflammation cytometric bead array (CBA) according to manufacturer's instructions (BD) on a FACSarray flow cytometer. The following cytokines were measured: IL-8, IL-1β, IL-10, TNF, IL-12 p70, IL-6. In some experiments, cytokines were measured by ELISA kits from R&D systems (IL-10, TNF-α, IL-1β) according to the manufacturer' instruction.

Series [2] relates to IL-1β production from human peripheral blood mononuclear cells (PBMC). Briefly: IL-1β production from human PBMC, Cytometric Bead Array. The following applies: Table 18. The class given is cell-based. As for the experimental part: as §1, §2
The test system of series [3] is IL-10 production from human peripheral blood mononuclear cells (PBMC). Briefly: IL-10 production from human PBMC, Cytometric Bead Array. The following applies: Table 17. It is filed as cell-based. The procedure:
as §1, §2

Series [4] deals with IL-23, human PBMC. Briefly: IL-23 in supernatants of human PBMC, ELISA. It is filed as cell-based. The following applies: treatment 1 μg/ml. As for the experimental part:
as §1, with “Nucleocounter. […]” for “Nucleocounter.”
Cell culture supernatants were collected and stored at −80° C. Amounts of IL-23 was measured by standard sandwich ELISA using commercially available antibodies and standards according to the manufacturer's protocols (eBioscience).
A general note: In an ELISA, binding on a coated surface is turned into a signal by an enzyme label.

The test system of series [5] is TNF production from mouse peripheral blood mononuclear cells (PBMC). The experiment in a line: TNF production from mouse PBMC, Cytometric Bead Array. It is filed as cell-based. As for the experimental part:
Mouse peripheral blood mononuclear cells were isolated from blood of ten NMRI mice. In short, heparinized blood was diluted 1/1 v/v with RPMI and subjected to Ficoll density centrifugation within 2 h of drawing. Plasma was collected from the top and discarded. Isolated PBMC were resuspended in culture medium (RPMI 1640 (Gibco, 42401) w/1% penicillin and streptomycin and 1% L-Glutamine) and seeded in 96-well culture plates with 115.500 cells per well in a total of 200 μl. […] The supernatants were collected after incubation at 37° C. for 24 hours, and stored at −80° C. until cytokine measurement.
Cytokine production in supernatants was measured by flow cytometry with a mouse inflammation cytometric bead array (CBA) according to manufacturer's instructions (BD) on a FACSarray flow cytometer.

For series [6], the system named is PBMC. The experiment in a line: PBMC viability, Alamar Blue. It is filed as cell-based, human. The following applies: human PBMC, Example 2. The procedure: as §1
A general note: Resazurin is reduced to fluorescent resorufin, in cell work by metabolically active cells.

Where [7] appears, read: LPS 0.6 ng/ml, concentration of control compound not given, Table 16.
The mark [8] stands for this setting: LPS 20 ng/ml, concentration of control compound not given, Table 16.
The mark [9] stands for this setting: LPS 20 ng/ml, treatment 1 μg/ml, Table 21.
Where [10] appears, read: Medium, treatment 1 μg/ml, Table 21.
Setting [11] is: LPS 0.6 ng/ml, concentration of control compound not given.
The mark [12] stands for this setting: LPS 20 ng/ml, concentration of control compound not given.
Where [13] appears, read: Medium, concentration of control compound not given.
The mark [14] stands for this setting: LPS 20 ng/ml, treatment 1 μg/ml.
Setting [15] is: LPS 0.6 ng/ml, test compound 1 μg/ml, Table 16.
Where [16] appears, read: LPS 20 ng/ml, test compound 1 μg/ml, Table 16.
[17] abbreviates: Medium, test compound 1 μg/ml, Table 16.
Where [18] appears, read: LPS 0.6 ng/ml, test compound 1 μg/ml.
Where [19] appears, read: LPS 20 ng/ml, test compound 1 μg/ml.
Where [20] appears, read: LPS 0.6 ng/ml, test compound 10 μg/ml, Table 16.
[21] abbreviates: LPS 20 ng/ml, test compound 10 μg/ml, Table 16.
[22] abbreviates: LPS 0.6 ng/ml, test compound 10 μg/ml.
The mark [23] stands for this setting: LPS 20 ng/ml, test compound 10 μg/ml.

Where no end group is shown, it is not given here.

As to “Infliximab: antibody which binds to TNF-alpha (Remicade), positive control [reference compound]”, the TNF amounted to 0 pg/mL in series [1] (setting [7]); 0 pg/mL in series [1] (setting [8]); 1 pg/mL in series [1] (setting [9]); 0 pg/mL in series [1] (Medium, concentration of control compound not given, Table 16); 0 pg/mL in series [1] (setting [10]); 2119 pg/mL in series [5] (setting [14]). In series [5] (Medium, treatment 1 μg/ml), the TNF was found to be 530 pg/mL. For the same substance, the “TNF % of control” value in series [1] (setting [7]) and in series [1] (setting [8]) was 0% each time. Also, the results for the IL-1β in series [2] (setting [11]), in series [2] (setting [12]) and in series [2] (setting [13]) were 636 pg/mL, 2704 pg/mL and 0 pg/mL, respectively. Besides, the “IL-1β % of control” value in series [2] (setting [11]) is 86%; in series [2] (setting [12]), 106%. Moreover, the IL-10 is 46 pg/mL in series [3] (setting [11]), 63 pg/mL in series [3] (setting [12]) and 0 pg/mL in series [3] (setting [13]). For the same substance, the “IL-10 % of control” value in series [3] (setting [11]) turned out to be 69%; in series [3] (setting [12]), 56%. Also, the IL-23 in series [4] (Control (medium)) turned out to be 227 pg/mL; in series [4] (LPS 0.6 ng/ml) it was 356 pg/mL; in series [4] (LPS 20 ng/ml), 373 pg/mL; in series [4] (LTA 5 μg/ml), 349 pg/mL.

With “mBD3: mouse beta defensin 3, SEQ ID NO:6; produced recombinantly by the hBD2 protocol (KINNPVSCLRKGGRCWNRCIGNTRQIGSCGVPFLKCCKRK; ends and bridges not checked; cysteine pairing not given here; listed as Mus musculus)”, the TNF is 384 pg/mL in series [1] (setting [9]); 51 pg/mL in series [1] (LPS 20 ng/ml, treatment 10 μg/ml, Table 21); 166 pg/mL in series [1] (LPS 20 ng/ml, treatment 100 μg/ml, Table 21); 2 pg/mL in series [1] (setting [10]); 2 pg/mL in series [1] (Medium, treatment 10 μg/ml, Table 21); 39 pg/mL in series [1] (Medium, treatment 100 μg/ml, Table 21). Moreover, the TNF in series [5] (setting [14]) stood at 1600 pg/mL; in series [5] (LPS 20 ng/ml, treatment 10 μg/ml) it was 297 pg/mL; in series [5] (LPS 20 ng/ml, treatment 100 μg/ml), 195 pg/mL; in series [5] (Medium, treatment 1 μg/ml), 347 pg/mL; in series [5] (Medium, treatment 10 μg/ml), 180 pg/mL; in series [5] (Medium, treatment 100 μg/ml) it was 182 pg/mL.

“hBD3: human beta defensin 3, SEQ ID NO:3; prepared using chemical synthesis, Peptide Institute Inc. (GIINTLQKYYCRVRGGRCAVLSCLPKEEQTGKCSTRGRKCCRRKK; ends and bridges not checked; cysteine pairing not given here; listed as Homo sapiens)”: the TNF in series [1] (setting [15]) was determined as 528 pg/mL; in series [1] (setting [16]) it was 451 pg/mL; in series [1] (setting [17]), 0 pg/mL. Further, the “TNF % of control” value in series [1] (setting [15]) was found to be 73%; in series [1] (setting [16]) it was 21%. Further, the IL-1β in series [2] (setting [18]) stood at 331 pg/mL; in series [2] (setting [19]) it was 568 pg/mL; in series [2] (Medium, test compound 1 μg/ml) it was 0 pg/mL. Further, the “IL-1β % of control” value in series [2] (setting [18]) amounted to 45%; in series [2] (setting [19]) it was 22%. Further, the IL-10 in series [3] (setting [18]) is 71 pg/mL; in series [3] (Medium, test compound 1 μg/ml), 0 pg/mL. Also, the results for the “IL-10 % of control” value in series [3] (setting [18]) and in series [3] (setting [19]) were 107% and 137%, respectively. For the same substance, the “toxicity to the cells” value in series [6] (10 μg/ml and 40 μg/ml) was “toxic to the cells”.

Take “hBD4 variant: consists of amino acids 3-39 of hBD4, SEQ ID NO:5; prepared using chemical synthesis (ELDRICGYGTARCRKKCRSQEYRIGRCPNTYACCLRK; hBD-4 variant consisting of amino acids 3-39 of SEQ ID NO4)”: the TNF was determined as 468 pg/mL in series [1] (setting [15]); 211 pg/mL in series [1] (setting [20]); 778 pg/mL in series [1] (setting [16]); 139 pg/mL in series [1] (setting [21]); 0 pg/mL in series [1] (setting [17]); 0 pg/mL in series [1] (Medium, test compound 10 μg/ml, Table 16). For the same substance, the “TNF % of control” value in series [1] (setting [15]) is on record as 64%; in series [1] (setting [20]), 29%; in series [1] (setting [16]), 36%; in series [1] (setting [21]), 6%. In addition, the IL-1β in series [2] (setting [18]) came out at 286 pg/mL; in series [2] (setting [22]) it was 163 pg/mL; in series [2] (setting [19]) it was 1004 pg/mL; in series [2] (setting [23]), 463 pg/mL; in series [2] (Medium, test compound 1 μg/ml), 0 pg/mL; in series [2] (Medium, test compound 10 μg/ml) it was 0 pg/mL. In addition, the “IL-1β % of control” value came to 39% in series [2] (setting [18]), 22% in series [2] (setting [22]), 40% in series [2] (setting [19]) and 18% in series [2] (setting [23]). Also, the IL-10 in series [3] (setting [18]) turned out to be 90 pg/mL; in series [3] (setting [22]), 92 pg/mL; in series [3] (setting [23]), 187 pg/mL; in series [3] (Medium, test compound 1 μg/ml) it was 0 pg/mL; in series [3] (Medium, test compound 10 μg/ml), 0 pg/mL. Further, the “IL-10 % of control” value in series [3] (setting [18]) came out at 136%; in series [3] (setting [22]), 139%; in series [3] (setting [19]) it was 157%; in series [3] (setting [23]) it was 168%. Further, the “toxicity to the cells” value in series [6] (40 μg/ml) is given as “toxic to the cells”.

The values above are taken from patent US20100016232A1, “Treatment Of Inflammatory Diseases With Mammal Beta Defensins” (Novozymes A/S, priority 2008, published 2010).
